Assay results as given in patent publication US10047098B2, “C5-C6-oxacyclic fused iminopyrimidinone compounds as bace inhibitors, compositions, and their use” (Merck Sharp & Dohme Corp., priority 2014, dated 2018).

Assays:
[1] = target: Recombinant human soluble BACE1 catalytic domain (Homo sapiens (Human), UniProt P56817); assay: BACE1 HTRF FRET Assay; format: biochemical; details: Ki calculated from IC50 using the Cheng-Prusoff equation; QSY7-APPswe-Eu substrate, pH 5.0; read-out: BACE-1 Ki
Description: Reagents: Na^+-Acetate pH 5.0; 1% Brij-35; Glycerol; Dimethyl Sulfoxide (DMSO); Recombinant human soluble BACE1 catalytic domain (>95% pure); APP Swedish mutant peptide substrate (QSY7-APP^swe-Eu): QSY7-EISEVNLDAEFC-Europium-amide.
A homogeneous time-resolved FRET assay can be used to determine IC50 values for inhibitors of the soluble human BACE1 catalytic domain. This assay monitors the increase of 620 nm fluorescence that resulted from BACE1 cleavage of an APPswedish APP^swe mutant peptide FRET substrate (QSY7-EISEVNLDAEFC-Europium-amide). This substrate contains an N-terminal QSY7 moiety that serves as a quencher of the C-terminal Europium fluorophore (620 nm Em). In the absence of enzyme activity, 620 nm fluorescence is low in the assay and increased linearly over 3 hours in the presence of uninhibited BACE1 enzyme. Inhibition of BACE1 cleavage of the QSY7-APP^swe-Eu substrate by inhibitors is manifested as a suppression of 620 nm fluorescence.
Varying concentrations of inhibitors at 3× the final desired concentration in a volume of 10 ul are preincubated with purified human BACE1 catalytic domain (3 nM in 10 μl) for 30 minutes at 30° C. in reaction buffer containing 20 mM Na-Acetate pH 5.0, 10% glycerol, 0.1% Brij-35 and 7.5% DSMO. Reactions are initiated by addition of 10 μl of 600 nM QSY7-APP^swe-Eu substrate (200 nM final) to give a final reaction volume of 30 μl in a 384 well Nunc HTRF plate. The reactions are incubated at 30° C. for 1.5 hours. The 620 nm fluorescence is then read on a Rubystar HTRF plate reader (BMG Labtechnologies) using a 50 millisecond delay followed by a 400 millisecond acquisition time window. Inhibitor IC50 values are derived from non-linear regression analysis of concentration response curves. Ki values are then calculated from IC50 values using the Cheng-Prusoff equation using a previously determined […] of 8 μM for the QSY7-APP^swe-Eu substrate at BACE1.

[2] = target: purified human autoBACE-2 (Homo sapiens (Human), UniProt Q9Y5Z0); assay: BACE-2 Assay (BACE-HTRF assay); format: biochemical; details: Ki calculated from IC50 using the Cheng-Prusoff equation; QSY7-EISEVNLDAEFC-Eu-amide substrate, pH 5.0
Protocol: Inhibitor IC50s at purified human autoBACE-2 are determined in a time-resolved endpoint proteolysis assay that measures hydrolysis of the QSY7-[…]-Eu-amide FRET peptide substrate (BACE-HTRF assay). […] DMSO is present at 5% final concentration in the assay. Following laser excitation of sample wells at 320 nm, the fluorescence signal at 620 nm is collected for 400 ms following a 50 μs delay on a RUBYstar HTRF plate reader (BMG Labtechnologies). Raw RFU data is normalized to maximum (1.0 nM BACE/DMSO) and minimum (no enzyme/DMSO) RFU values. […] The Ki values are calculated from the IC50 using the Cheng-Prusoff equation.

Chain of Recombinant human soluble BACE1 catalytic domain (P56817 75-416): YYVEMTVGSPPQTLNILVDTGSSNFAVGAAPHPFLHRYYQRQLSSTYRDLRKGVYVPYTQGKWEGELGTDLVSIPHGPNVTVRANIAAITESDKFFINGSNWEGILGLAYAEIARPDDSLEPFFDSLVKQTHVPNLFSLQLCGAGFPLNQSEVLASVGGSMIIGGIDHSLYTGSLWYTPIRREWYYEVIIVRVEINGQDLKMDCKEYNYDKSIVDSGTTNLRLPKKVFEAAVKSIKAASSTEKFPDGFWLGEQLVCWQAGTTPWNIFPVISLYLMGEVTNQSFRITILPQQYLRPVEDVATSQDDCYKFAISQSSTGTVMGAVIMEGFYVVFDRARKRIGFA
Chain of purified human autoBACE-2 (Q9Y5Z0 63-473 limits assumed): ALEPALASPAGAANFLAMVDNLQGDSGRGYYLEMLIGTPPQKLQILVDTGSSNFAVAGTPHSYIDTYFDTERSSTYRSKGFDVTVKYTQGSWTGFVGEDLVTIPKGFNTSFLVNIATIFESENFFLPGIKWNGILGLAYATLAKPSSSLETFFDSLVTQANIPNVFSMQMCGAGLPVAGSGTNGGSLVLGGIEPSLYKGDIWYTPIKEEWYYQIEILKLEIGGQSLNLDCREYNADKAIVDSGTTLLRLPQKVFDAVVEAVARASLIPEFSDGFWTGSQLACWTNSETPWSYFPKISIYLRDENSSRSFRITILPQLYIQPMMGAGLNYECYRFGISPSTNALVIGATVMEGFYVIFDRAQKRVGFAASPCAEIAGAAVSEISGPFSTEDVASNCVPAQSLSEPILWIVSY

Ki [1] [nM]	Ki [2] [nM]	SMILES
11	10	CN1C(=N)N[C@@]2(c3cc(OCC4CC4)ccc3F)CO[C@@H](C3CC3)C[C@H]2C1=O [Example 24, (4aR,6R,8aS)-6-cyclopropyl-8a-(5-(cyclopropylmethoxy)-2-fluorophenyl)-2-imino-3-methylhexahydro-1H-pyrano[3,4-d]pyrimidin-4(4aH)-one]
27	46	CN1C(=N)N[C@@]2(c3cc(Oc4cccc(C#N)c4)ccc3F)CO[C@@H](C3CC3)C[C@H]2C1=O [Example 25, 3-(3-((4aR,6R,8aS)-6-cyclopropyl-2-imino-3-methyl-4-oxohexahydro-1H-pyrano[3,4-d]pyrimidin-8a(8H)-yl)-4-fluorophenoxy)benzonitrile]
8	98	C[C@H]1C[C@H]2C(=O)N(C)C(=N)N[C@@]2(c2cc(OCC34CC(C#N)(C3)C4)ccc2F)CO1 [Example 26, 3-((4-fluoro-3-((4aR,6S,8aS)-2-imino-3,6-dimethyl-4-oxohexahydro-1H-pyrano[3,4-d]pyrimidin-8a(8H)-yl)phenoxy)methyl)bicyclo[1.1.1]pentane-1-carbonitrile]
10	51	CN1C(=N)N[C@@]2(c3cc(Oc4cncc(C#N)c4)ccc3F)CO[C@@H](C3CC3)C[C@H]2C1=O [Example 27, 5-(3-((4aR,6R,8aS)-6-cyclopropyl-2-imino-3-methyl-4-oxohexahydro-1H-pyrano[3,4-d]pyrimidin-8a(8H)-yl)-4-fluorophenoxy)nicotinonitrile]
136	627	CN1C(=N)N[C@@]2(c3cc(-c4cncnc4)ccc3F)CO[C@@H](C3CC3)C[C@H]2C1=O [Example 28, (4aR,6R,8aS)-6-cyclopropyl-8a-(2-fluoro-5-(pyrimidin-5-yl)phenyl)-2-imino-3-methylhexahydro-1H-pyrano[3,4-d]pyrimidin-4(4aH)-one]
16	54	CN1C(=N)N[C@@]2(c3cc(Oc4cncc(C(F)F)n4)ccc3F)CO[C@@H](C3CC3)C[C@H]2C1=O [Example 29, (4aR,6R,8aS)-6-cyclopropyl-8a-(5-((6-(difluoromethyl)pyrazin-2-yl)oxy)-2-fluorophenyl)-2-imino-3-methylhexahydro-1H-pyrano[3,4-d]pyrimidin-4(4aH)-one]
3	25	COC[C@H]1C[C@H]2C(=O)N(C)C(=N)N[C@@]2(c2cc(Oc3cc(C#N)ccn3)ccc2F)CO1 [Example 30, 2-(4-fluoro-3-((4aR,6R,8aS)-2-imino-6-(methoxymethyl)-3-methyl-4-oxohexahydro-1H-pyrano[3,4-d]pyrimidin-8a(8H)-yl)phenoxy)isonicotinonitrile]
4	8	COC[C@H]1C[C@H]2C(=O)N(C)C(=N)N[C@@]2(c2cc(Oc3ncccc3F)ccc2F)CO1 [Example 31, (4aR,6R,8aS)-8a-(2-fluoro-5-((3-fluoropyridin-2-yl)oxy)phenyl)-2-imino-6-(methoxymethyl)-3-methylhexahydro-1H-pyrano[3,4-d]pyrimidin-4(4aH)-one]
21	9	COC[C@H]1C[C@H]2C(=O)N(C)C(=N)N[C@@]2(c2cc(OCC3CC3)ccc2F)CO1 [Example 32, (4aR,6R,8aS)-8a-(5-(cyclopropylmethoxy)-2-fluorophenyl)-2-imino-6-(methoxymethyl)-3-methylhexahydro-1H-pyrano[3,4-d]pyrimidin-4(4aH)-one]
2.2	13.5	CN1C(=N)N[C@@]2(c3cc(Oc4cccc(-n5cccn5)n4)ccc3F)CO[C@@H](C3CC3)C[C@H]2C1=O [Example 34, (4aR,6R,8aS)-8a-(5-((6-(1H-pyrazol-1-yl)pyridin-2-yl)oxy)-2-fluorophenyl)-6-cyclopropyl-2-imino-3-methylhexahydro-1H-pyrano[3,4-d]pyrimidin-4(4aH)-one]
13	86	CN1C(=N)N[C@@]2(c3cc(Oc4cccc(-c5cocn5)c4)ccc3F)CO[C@@H](C3CC3)C[C@H]2C1=O [Example 35]
8.9	24	C[C@H]1C[C@H]2C(=O)N(C)C(=N)N[C@@]2(c2cc(Oc3ncc(F)cc3F)ccc2F)CO1 [Example 36, (4aR,6S,8aS)-8a-(5-((3,5-difluoropyridin-2-yl)oxy)-2-fluorophenyl)-2-imino-3,6-dimethylhexahydro-1H-pyrano[3,4-d]pyrimidin-4(4aH)-one]
9	127	CN1C(=N)N[C@@]2(c3cc(OCC45CC(C#N)(C4)C5)ccc3F)CO[C@@H](C3CC3)C[C@H]2C1=O [Example 37, 3-((3-((4aR,6R,8aS)-6-cyclopropyl-2-imino-3-methyl-4-oxohexahydro-1H-pyrano[3,4-d]pyrimidin-8a(8H)-yl)-4-fluorophenoxy)methyl)bicyclo[1.1.1]pentane-1-carbonitrile]
206	398	CN1C(=N)N[C@@]2(c3cc(C#N)ccc3F)CO[C@@H](C3CC3)C[C@H]2C1=O [Example 38, 3-((4aR,6R,8aS)-6-cyclopropyl-2-imino-3-methyl-4-oxohexahydro-1H-pyrano[3,4-d]pyrimidin-8a(8H)-yl)-4-fluorobenzonitrile]
13	73	CN1C(=N)N[C@@]2(c3cc(Oc4cnccn4)ccc3F)CO[C@@H](C3CC3)C[C@H]2C1=O [Example 39, (4aR,6R,8aS)-6-cyclopropyl-8a-(2-fluoro-5-(pyrazin-2-yloxy)phenyl)-2-imino-3-methylhexahydro-1H-pyrano[3,4-d]pyrimidin-4(4aH)-one]
54	11	CN1C(=N)N[C@@]2(c3cc(Oc4ccncc4)ccc3F)CO[C@@H](C3CC3)C[C@H]2C1=O [Example 40, (4aR,6R,8aS)-6-cyclopropyl-8a-(2-fluoro-5-(pyridin-4-yloxy)phenyl)-2-imino-3-methylhexahydro-1H-pyrano[3,4-d]pyrimidin-4(4aH)-one]
106	65	CN1C(=N)N[C@@]2(c3cc(Oc4ccnnc4)ccc3F)CO[C@@H](C3CC3)C[C@H]2C1=O [Example 41, (4aR,6R,8aS)-6-cyclopropyl-8a-(2-fluoro-5-(pyridazin-4-yloxy)phenyl)-2-imino-3-methylhexahydro-1H-pyrano[3,4-d]pyrimidin-4(4aH)-one]
7	51	COc1cncc(Oc2ccc(F)c([C@]34CO[C@@H](C5CC5)C[C@H]3C(=O)N(C)C(=N)N4)c2)n1 [Example 42, (4aR,6R,8aS)-6-cyclopropyl-8a-(2-fluoro-5-((6-methoxypyrazin-2-yl)oxy)phenyl)-2-imino-3-methylhexahydro-1H-pyrano[3,4-d]pyrimidin-4(4aH)-one]
52	191	CN1C(=N)N[C@@]2(c3cc(Oc4ncccn4)ccc3F)CO[C@@H](C3CC3)C[C@H]2C1=O [Example 43, (4aR,6R,8aS)-6-cyclopropyl-8a-(2-fluoro-5-(pyrimidin-2-yloxy)phenyl)-2-imino-3-methylhexahydro-1H-pyrano[3,4-d]pyrimidin-4(4aH)-one]
30	20	CN1C(=N)N[C@@]2(c3cc(OCC4CCC4)ccc3F)CO[C@@H](C3CC3)C[C@H]2C1=O [Example 44, (4aR,6R,8aS)-8a-(5-(cyclobutylmethoxy)-2-fluorophenyl)-6-cyclopropyl-2-imino-3-methylhexahydro-1H-pyrano[3,4-d]pyrimidin-4(4aH)-one]
